From paper PMC6339703, “Visualizing the Distribution of Matrix Metalloproteinases in Ischemic Brain Using In Vivo ^19F-Magnetic Resonance Spectroscopic Imaging” (Contrast Media & Molecular Imaging, 2019)

What was measured:
MMP2 = biological target: T1, MMP2 (Homo sapiens, UniProt P08253); assay: in vitro MMP inhibition assay (Eurofins Panlabs); type: biochemical
T1 sequence (P08253 110-660): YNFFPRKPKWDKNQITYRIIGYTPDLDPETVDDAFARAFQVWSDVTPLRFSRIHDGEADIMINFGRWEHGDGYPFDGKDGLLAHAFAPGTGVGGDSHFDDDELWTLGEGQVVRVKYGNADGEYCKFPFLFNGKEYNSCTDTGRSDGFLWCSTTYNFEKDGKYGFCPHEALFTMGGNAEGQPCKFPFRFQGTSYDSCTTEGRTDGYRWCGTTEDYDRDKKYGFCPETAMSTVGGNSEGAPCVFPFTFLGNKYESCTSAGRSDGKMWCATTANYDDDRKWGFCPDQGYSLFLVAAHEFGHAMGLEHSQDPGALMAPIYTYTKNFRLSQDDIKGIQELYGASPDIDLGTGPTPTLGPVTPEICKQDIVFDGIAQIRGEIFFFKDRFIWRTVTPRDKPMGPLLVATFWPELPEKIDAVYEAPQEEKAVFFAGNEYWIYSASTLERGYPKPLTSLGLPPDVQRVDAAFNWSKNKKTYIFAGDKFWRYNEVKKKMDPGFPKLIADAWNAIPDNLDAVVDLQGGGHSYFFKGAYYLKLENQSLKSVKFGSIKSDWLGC

MMP9 = MMP9 (Homo sapiens, UniProt P14780); assay: in vitro MMP inhibition assay (Eurofins Panlabs); type: biochemical
MMP9, sequence (P14780 107-707): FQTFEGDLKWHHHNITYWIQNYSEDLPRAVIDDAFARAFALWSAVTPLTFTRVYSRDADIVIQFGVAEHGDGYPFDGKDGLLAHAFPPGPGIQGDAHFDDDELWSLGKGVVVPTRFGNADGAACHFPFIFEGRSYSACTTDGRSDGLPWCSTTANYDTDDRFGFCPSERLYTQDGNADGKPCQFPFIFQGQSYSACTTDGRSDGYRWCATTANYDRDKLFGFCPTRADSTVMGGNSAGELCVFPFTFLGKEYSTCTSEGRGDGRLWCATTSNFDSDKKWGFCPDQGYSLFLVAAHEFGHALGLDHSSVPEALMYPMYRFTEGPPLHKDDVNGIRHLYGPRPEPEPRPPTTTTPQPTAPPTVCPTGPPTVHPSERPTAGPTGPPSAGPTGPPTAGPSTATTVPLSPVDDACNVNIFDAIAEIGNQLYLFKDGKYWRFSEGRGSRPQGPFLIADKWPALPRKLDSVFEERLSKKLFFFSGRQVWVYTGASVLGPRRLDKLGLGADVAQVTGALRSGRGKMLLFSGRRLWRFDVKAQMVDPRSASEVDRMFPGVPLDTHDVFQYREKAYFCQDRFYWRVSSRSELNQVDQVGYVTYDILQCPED

CNC(=O)C(Cc1c[nH]c2ccc(F)cc12)NC(=O)C(CC(=O)NO)CC(C)C (mixture of isomers) [TGF-019]
in vitro MMP inhibition assay (Eurofins Panlabs) (MMP2): completely inhibit | in vitro MMP inhibition assay (Eurofins Panlabs) (MMP9): completely inhibit
